Series [1] relates to PVY. The series is described as follows: Inactivating activity against PVY, half-leaf method on Chenopodium amaranticolor. The conditions noted are these: Potato virus Y, in Chenopodium amaranticolor. The class given is in vivo, potato virus Y. The procedure: (§1) According to previous reports,[46] PVY was infested in Nicotiana tabacum K326, and PVY was harvested and purified after showing severe infection symptoms on the leaves. The literature-guided protocol was followed to assess the curative, prophylactic, and […] potential of the target compounds under investigation.[15]
Target compound solution (1,000 μg/mL) and 2 × virus solution were combined in equal quantities and incubated for 30 min. Evenly distribute emery onto the leaf blades, and apply the mixture of virus and compound solution onto the right side of C. amaranticolor leaf blades. Following this, an identical quantity of a 1× virus solution was applied to the untreated side of the leaf. Following a duration of 1.5 h, the emery residue present on the leaf surface was removed using a rinsing process utilizing water. The plants were incubated within a controlled greenhouse environment, maintaining a consistent temperature of 25°C. After 5−7 days, they proceeded to statistics the number of necrotic spots on the leaves. For each chemical, triplicate experiments were undertaken, and the average percentage of inhibition was subsequently determined.

The test system of series [2] is PVY. The series is described as follows: Protective activity against PVY, half-leaf method on Chenopodium amaranticolor. The class given is in vivo. The conditions noted are these: Potato virus Y, in Chenopodium amaranticolor; 500 μg/mL; Chenopodium amaranticolor leaves; average of three replicates. The protocol: as §1
A 500 μg/mL solution of the targeted compound was delicately applied to one side of C. amaranticolor leaves, while the other side was treated with a 1% Tween 80 aqueous solution. The plants were positioned in a greenhouse set at 25°C. Following a 24 h period, the entire leaf surface was inoculated with PVY by uniformly distributing 200–300 mesh emery. After 1.5 h, the emery was washed off with water, and the plants were returned to the greenhouse. After 5–7 days, the number of necrotic spots was tallied, with the assessment based on the greenhouse population. Each compound was tested in triplicate, and the average inhibition rate was subsequently calculated.

[3] abbreviates: Chenopodium amaranticolor leaves, read-out: EC50 for inactivating activity.
The mark [4] stands for this setting: inactivating activity, Table S1, read-out: Experimental pEC50 (converted).

Each structure is given as a SMILES string. Like-named read-outs stand apart in the source and are kept apart here.

In turn, `Cc1cc(C)c(S(=O)(=O)Nc2ccc(/N=C/c3ccc4c(c3O)C=CC(C)(C)O4)cc2)c(C)c1` [Compound C19] yielded a melting point of 137 to 139 °C. Moreover, in the series with PVY [1] (setting [3]), the EC50 came out at 492 ± 11.2 µg/mL. Further, in the series on PVY [1] (setting [4]), the EC50 is 1040 µM.
For `CC1(C)C=Cc2c(ccc(/C=N/c3ccc(NS(=O)(=O)c4ccc(OC(F)(F)F)cc4)cc3)c2O)O1` [Compound C30] the same measures were 128 to 130 °C, 834 ± 18.3 µg/mL and 1610 µM.
On to `CC1(C)C=Cc2c(ccc(/C=N/c3ccc(NS(=O)(=O)c4ccc(C(F)(F)F)cc4)cc3)c2O)O1` [Compound C2], for which the melting point lay within 132 to 134 °C. The EC50 with PVY [1] (setting [3]) was 255.7 ± 0.72 µg/mL. In addition, in the series on PVY [1] (setting [4]), the EC50 was 509 µM.
Taken in the same sequence, the figures for `CC1(C)C=Cc2c(ccc(C=Nc3ccc(NS(=O)(=O)CC45CCC(CC4=O)C5(C)C)cc3)c2O)O1` (stereo not shown) [Compound C40] were 186 to 188 °C, 204 ± 7.1 µg/mL and 402 µM.
Taken in the same sequence, the figures for `CC1(C)C=Cc2c(ccc(/C=N/c3ccc(NS(=O)(=O)c4cccc(C#N)c4)cc3)c2O)O1` [Compound C11] were 152 to 154 °C, 703 ± 25.3 µg/mL and 1530 µM.
For `CC1(C)C=Cc2c(ccc(/C=N/c3ccc(NS(=O)(=O)c4cccs4)cc3)c2O)O1` [Compound C4] the same measures were 148 to 150 °C, 667 ± 20.1 µg/mL and 1520 µM.
Turning to `CC1(C)C=Cc2c(ccc(/C=N/c3ccc(NS(=O)(=O)c4ccccc4C(F)(F)F)cc3)c2O)O1` [Compound C22], the melting point was in the range of 130 to 132 °C. Further, the EC50 with PVY [1] (setting [3]) amounted to 587 ± 9.9 µg/mL. In addition, the EC50 with PVY [1] (setting [4]) is 1170 µM.
For `CC1(C)C=Cc2c(ccc(/C=N/c3ccc(NS(=O)(=O)c4ccc(F)cc4)cc3)c2O)O1` [Compound C5] the same measures were 144 to 146 °C, 165 ± 8.7 µg/mL and 366 µM.
For `COc1ccc(S(=O)(=O)Nc2ccc(/N=C/c3ccc4c(c3O)C=CC(C)(C)O4)cc2)cc1` [Compound C1, (E) -N-(4-(((5-hydroxy-2,2-dimethyl-2H-chromen-6-yl)methylene)amino)phenyl) -4-methoxybenzenesulfonamide] the same measures were 139 to 141 °C, 441 ± 5.2 µg/mL and 951 µM.
Consider `CC1(C)C=Cc2c(ccc(/C=N/c3ccc(NS(=O)(=O)c4cc(F)ccc4F)cc3)c2O)O1` [Compound C15], for which the melting point is 180 to 182 °C. For the same compound, the EC50 with PVY [1] (setting [3]) was 903 ± 14.3 µg/mL. The EC50 in the series with PVY [1] (setting [4]) was 1920 µM.
Taken in the same sequence, the figures for `CC(C)=CCCC1(C)C=Cc2c(ccc(/C=N/c3ccc(NS(=O)(=O)c4c(F)cccc4F)cc3)c2O)O1` (stereo not shown) [Compound C47] were 80 to 82 °C, 630 ± 11.2 µg/mL and 1170 µM.
Taken in the same sequence, the figures for `CC1(C)C=Cc2c(ccc(/C=N/c3ccc(NS(=O)(=O)c4ccc(C(C)(C)C)cc4)cc3)c2O)O1` [Compound C20] were 142 to 144 °C, 1000 µg/mL and 2050 µM.
Taken in the same sequence, the figures for `CC1(C)C=Cc2c(ccc(/C=N/c3ccc(NS(=O)(=O)c4ccc([N+](=O)[O-])cc4)cc3)c2O)O1` [Compound C12] were 164 to 166 °C, 400 ± 7.5 µg/mL and 836 µM.
`CC1(C)C=Cc2c(ccc(/C=N/c3ccc(NS(=O)(=O)c4ccccc4Br)cc3)c2O)O1` [Compound C33] displayed a melting point of 170 to 172 °C. Moreover, the EC50 with PVY [1] (setting [3]) was determined as 139 ± 3.2 µg/mL. The EC50 in the series on PVY [1] (setting [4]) was 272 µM.
For `CC1(C)C=Cc2c(ccc(/C=N/c3ccc(NS(=O)(=O)c4ccccc4F)cc3)c2O)O1` [Compound C8] the same measures were 175 to 177 °C, 369 ± 9.9 µg/mL and 667 µM.
On to `CC(C)=CCCC1(C)C=Cc2c(ccc(/C=N/c3ccc(NS(=O)(=O)c4ccc(Cl)cc4)cc3)c2O)O1` (stereo not shown) [Compound C41], for which the melting point was 115 to 117 °C. For the same compound, in the series on PVY [1] (setting [3]), the EC50 stood at 781 ± 15.3 µg/mL. In addition, in the series with PVY [1] (setting [4]), the EC50 was 1460 µM.
`CC1(C)C=Cc2c(ccc(/C=N/c3ccc(NS(=O)(=O)c4cc(Cl)cc(Cl)c4)cc3)c2O)O1` [Compound C23] came in with a melting point of 211 to 213 °C. Besides, the EC50 with PVY [1] (setting [3]) came to 871 ± 17.3 µg/mL. In addition, the EC50 in the series with PVY [1] (setting [4]) is 1730 µM.
Taken in the same sequence, the figures for `CC1(C)C=Cc2c(ccc(/C=N/c3ccc(NS(=O)(=O)c4ccc(Cl)cc4Cl)cc3)c2O)O1` [Compound C31] were 154 to 156 °C, 976 ± 20 µg/mL and 1950 µM.
For `CC(C)=CCCC1(C)C=Cc2c(ccc(/C=N/c3ccc(NS(=O)(=O)c4cccc(C)c4)cc3)c2O)O1` (stereo not shown) [Compound C44] the same measures were 84 to 86 °C, 882 ± 17.3 µg/mL and 1710 µM.
For `CC(=O)Nc1ccc(S(=O)(=O)Nc2ccc(/N=C/c3ccc4c(c3O)C=CC(C)(C)O4)cc2)cc1` [Compound C21], the melting point was in the range of 161 to 163 °C. Also, in the series on PVY [1] (setting [3]), the EC50 amounted to 1020 µg/mL. The EC50 in the series on PVY [1] (setting [4]) is 2080 µM.
The compound `CC1(C)C=Cc2c(ccc(/C=N/c3ccc(NS(=O)(=O)c4ccccc4Cl)cc3)c2O)O1` [Compound C25] had a melting point of 166 to 168 °C. Besides, in the series with PVY [1] (setting [3]), the EC50 is 244 ± 10.2 µg/mL. Also, the EC50 with PVY [1] (setting [4]) is 521 µM.
For `CC1(C)C=Cc2c(ccc(/C=N/c3ccc(NS(=O)(=O)c4cccc(C(F)(F)F)c4)cc3)c2O)O1` [Compound C35] the same measures were 123 to 125 °C, 803 ± 12.3 µg/mL and 1600 µM.
The compound `CCCCCCCCS(=O)(=O)Nc1ccc(/N=C/c2ccc3c(c2O)C=CC(C)(C)O3)cc1` [Compound C3] gave a melting point of 94 to 96 °C. Besides, in the series on PVY [1] (setting [3]), the EC50 amounted to 605 ± 12.2 µg/mL. Also, the EC50 in the series on PVY [1] (setting [4]) was 1290 µM.
Taken in the same sequence, the figures for `CC(C)=CCCC1(C)C=Cc2c(ccc(/C=N/c3ccc(NS(=O)(=O)c4ccc(Cl)s4)cc3)c2O)O1` (stereo not shown) [Compound C43] were 97 to 99 °C, 512 ± 11 µg/mL and 944 µM.
Turning to `Cc1noc(C)c1S(=O)(=O)Nc1ccc(/N=C/c2ccc3c(c2O)C=CC(C)(C)O3)cc1` [Compound C39], the melting point was 195 to 197 °C. In the series with PVY [1] (setting [3]), the EC50 was 397.1 ± 2.3 µg/mL. Further, in the series on PVY [1] (setting [4]), the EC50 was 877 µM.
Taken in the same sequence, the figures for `CCc1ccc(S(=O)(=O)Nc2ccc(/N=C/c3ccc4c(c3O)C=CC(C)(C)O4)cc2)cc1` [Compound C18] were 121 to 123 °C, 202 ± 3.8 µg/mL and 438 µM.
In the case of `CC1(C)C=Cc2c(ccc(/C=N/c3ccc(NS(=O)(=O)c4cc(Cl)ccc4Cl)cc3)c2O)O1` [Compound C14], the melting point is 148 to 150 °C. Also, the EC50 in the series with PVY [1] (setting [3]) was 751 ± 19.4 µg/mL. Moreover, the EC50 with PVY [1] (setting [4]) was 1500 µM.
For `CC(C)=CCCC1(C)C=Cc2c(ccc(/C=N/c3ccc(NS(=O)(=O)c4cc(F)cc(F)c4)cc3)c2O)O1` (stereo not shown) [Compound C48] the same measures were 138 to 140 °C, 717 ± 17.8 µg/mL and 1330 µM.
Taken in the same sequence, the figures for `CC1(C)C=Cc2c(ccc(/C=N/c3ccc(NS(=O)(=O)C4CC4)cc3)c2O)O1` [Compound C13] were 147 to 149 °C, 531 ± 20.7 µg/mL and 1330 µM.
Taken in the same sequence, the figures for `CC1(C)C=Cc2c(ccc(/C=N/c3ccc(NS(=O)(=O)c4ccccc4)cc3)c2O)O1` [Compound C17] were 134 to 136 °C, 168 ± 4.8 µg/mL and 388 µM.
Compound `CC(C)=CCCC1(C)C=Cc2c(ccc(/C=N/c3ccc(NS(=O)(=O)c4ccc(Br)s4)cc3)c2O)O1` (stereo not shown) [Compound C49] gave a melting point of 75 to 77 °C. For the same compound, the EC50 in the series on PVY [1] (setting [3]) turned out to be 553 ± 9.3 µg/mL. The EC50 in the series on PVY [1] (setting [4]) was 944 µM.
For `CC(C)=CCCC1(C)C=Cc2c(ccc(/C=N/c3ccc(NS(=O)(=O)c4cccc(F)c4)cc3)c2O)O1` (stereo not shown) [Compound C45] the same measures were 113 to 115 °C, 516 ± 9 µg/mL and 991 µM.
Taken in the same sequence, the figures for `CC1(C)C=Cc2c(ccc(/C=N/c3ccc(NS(=O)(=O)c4cccnc4)cc3)c2O)O1` [Compound C9] were 150 to 152 °C, 310 ± 8.6 µg/mL and 713 µM.
For `CC(C)=CCCC1(C)C=Cc2c(ccc(/C=N/c3ccc(NS(=O)(=O)c4ccc(C(F)(F)F)cc4)cc3)c2O)O1` (stereo not shown) [Compound C46] the same measures were 130 to 132 °C, 522 ± 8.1 µg/mL and 916 µM.
`CC1(C)C=Cc2c(ccc(/C=N/c3ccc(NS(=O)(=O)c4cccc(F)c4)cc3)c2O)O1` [Compound C7]: the melting point was in the range of 164 to 166 °C. The compound also came in with an inhibition at 500 µg/mL with PVY [2] of 60 to 70%. In the series on PVY [1] (setting [3]), the EC50 was found to be 100 ± 5.7 µg/mL. Further, the EC50 with PVY [1] (setting [4]) was 222 µM.

The values are drawn from paper PMC11565046, “Rational design of 2H-chromene-based antiphytovirals that inhibit virion assembly by outcompeting virus capsid-RNA interactions” (iScience, 2024).
